Patent US20120077694A1, “TARGETS IN BREAST CANCER FOR PROGNOSIS OR THERAPY” (The Regents of the University of California, priority 2006, published 2012)

System: HCC1954 and CAMA1 cells
Assay: Cell growth in 3D culture after shRNA knockdown
Assay type: cell-based, human
Conditions: vs shRNA control

In the case of “#38160 shFGF3: FGF3 shRNA hairpin, SEQ ID NO: 190 (CCGGGAGCTGGGCTATAATACGTATCTCGAGATACGTATTATAGCCCAGCTCTTTTTG)”, the “colony size / cell growth in 3D culture” value is reported as “colonies were much smaller”.
In the case of “#5149 shNEU3: NEU3 shRNA hairpin, SEQ ID NO: 182 (CCGGAGTGACAACATGCTCCTTCAACTCGAGTTGAAGGAGCATGTTGTCACTTTTTT)”, the “colony size / cell growth in 3D culture” value is reported as “colonies were much smaller”.
For “#2969 shPPFIA1: PPFIA1 shRNA hairpin, SEQ ID NO: 192 (CCGGGAGGAGATTGAAAGTCGAGTTCTCGAGAACTCGACTTTCAATCTCCTCTTTTT)”, the “colony size / cell growth in 3D culture” value was “colonies were much smaller”.
